Assay results published in BindingDB's records for doi:10.1021/jm001111b (Louis Pasteur University, 2001).

Experiment: Displacement of [3H]clonidine from imidazoline receptor I-1 of bovine chromaffin cell membranes

Structure (SMILES) | Ki
CC1CC(NC(C2CC2)C2CC2)=NC1C (stereo unspecified) | 537 nM
CCC1CCC(NC(C2CC2)C2CC2)=N1 (stereo unspecified) | 170 nM
CC1CN=C(NC(C2CC2)C2CC2)C1 (stereo unspecified) | 646 nM
C1COC(NC(C2CC2)C2CC2)=N1 [CHEBI:8862] | 74 nM

Further lines, results first:

Ki | Structure (SMILES)
1580 nM | CC1CCC(NC(C2CC2)C2CC2)=N1 (stereo unspecified)
513 nM | C1CN=C(NC(C2CC2)C2CC2)C1
